From US9024027B2, “Derivatives of 1-phenyl-2-pyridinyl alkyl alcohols as phosphodiesterase inhibitors” (Chiesi Farmaceutici S.p.A., priority 2011, dated 2015) come the findings set out here.

Structures are written as SMILES.

For one data set, the system named is LPS-induced TNF-α release in peripheral blood mononuclear cells (PBMCs). In words: In vitro determination of PDE4 inhibitory activity in the PBMCs assay (LPS-induced TNF-α release). The data set is classed as cell-based. Conditions: PBMC; human PBMCs, LPS 3 ng/ml, 18 hours; read-out: PDE4 inhibition (IC50, 50% inhibition of LPS-induced TNF-α release). The method, then:
The assay, which is based on the known inhibitory activity exerted by PDE4 inhibitors on the lipopolyshaccarides (LPS)-induced tumour necrosis factor-alpha (TNF-α release in peripheral blood mononuclear cells (PBMCs), was performed according to a method previously described (Hatzelmann A et al., J. Pharmacol. Exp. Ther., 2001; 297:267-279; and Draheim R et al., J. Pharmacol. Exp. Ther., 2004; 308:555-563, both of which are incorporated herein by reference in their entireties. Cryopreserved human PBMCs, (100 μl/well) were incubated in 96-well plates (10^5 cells/well), for 30 minutes, in the presence or absence (50 microl) of the test compounds whose concentrations ranged from 10^−12 M to 10^−6 M or from 10^−13 M to 10^−7 M. Subsequently, LPS (3 ng/ml) was added. After 18 hours of incubation at 37° C. in a humidified incubator under an atmosphere of 95% air and 5% CO2, culture medium was collected and TNF-α measured by ELISA.
The results of the tested compounds, representatives of the invention, expressed as mean±95% confidence limits of the molar concentration of the test compound producing 50% inhibition of LPS-induced TNF-α release (IC50) are shown in the following Table: […]
Broadly, the IC50 is the concentration needed to halve the response being measured. In the case of `CS(=O)(=O)N(CCN1CCOCC1)c1cccc2c1ccn2CC(=O)O[C@@H](Cc1c(Cl)c[n+]([O-])cc1Cl)c1ccc(OC(F)F)c(OCC2CC2)c1` [Compound 233, (S)-3,5-dichloro-4-(2-(3-(cyclopropylmethoxy)-4-(difluoromethoxy)phenyl)-2-(2-(4-(N-(2-morpholinoethyl)methylsulfonamido)-1H-indol-1-yl)acetoxy)ethyl)pyridine 1-oxide], the 50% inhibitory concentration (IC50) fell in the range of 1 to 10 nM. The same measure, in the same setting: then `CS(=O)(=O)N(CCN1CCOCC1)c1ccc2c(c1)C(=O)C(=O)N2CC(=O)O[C@@H](Cc1c(Cl)c[n+]([O-])cc1Cl)c1ccc(OC(F)F)c(OCC2CC2)c1` [Compound 240, (S)-3,5-dichloro-4-(2-(3-(cyclopropylmethoxy)-4-(difluoromethoxy)phenyl)-2-(2-(5-(N-(2-morpholinoethyl)methylsulfonamido)-2,3-dioxoindolin-1-yl)acetoxy)ethyl)pyridine 1-oxide], with less than 1 nM. As for `CS(=O)(=O)N(CCN1CCOCC1)c1ccc2c(c1)CC(=O)N2CC(=O)O[C@@H](Cc1c(Cl)c[n+]([O-])cc1Cl)c1ccc(OC(F)F)c(OCC2CC2)c1` [Compound 243, (S)-3,5-dichloro-4-(2-(3-(cyclopropylmethoxy)-4-(difluoromethoxy)phenyl)-2-(2-(5-(N-(2-morpholinoethyl)methylsulfonamido)-2-oxoindolin-1-yl)acetoxy)ethyl)pyridine 1-oxide], the concentration for half-maximal inhibition (IC50) is less than 1 nM. As for `CS(=O)(=O)N(CCN1CCOCC1)Cc1ccc2c(c1)C(=O)N(CC(=O)O[C@@H](Cc1c(Cl)c[n+]([O-])cc1Cl)c1ccc(OC(F)F)c(OCC3CC3)c1)C2=O` [Compound 258, (S)-3,5-dichloro-4-(2-(3-(cyclopropylmethoxy)-4-(difluoromethoxy)phenyl)-2-(2-(5-((N-(2-morpholinoethyl)methylsulfonamido)methyl)-1,3-dioxoisoindolin-2-yl)acetoxy)ethyl)pyridine 1-oxide], the half-inhibitory concentration (IC50) was less than 1 nM. Turning to `O=C(CN1C(=O)c2ccccc2C1=O)O[C@@H](Cc1c(Cl)c[n+]([O-])cc1Cl)c1ccc(OC(F)F)c(OC2CCOC2)c1` (stereo partly drawn) [Compound 261, 3,5-dichloro-4-((2S)-2-(4-(difluoromethoxy)-3-(tetrahydrofuran-3-yloxy)phenyl)-2-(2-(1,3-dioxoisoindolin-2-yl)acetoxy)-ethyl)pyridine 1-oxide], the 50% inhibitory concentration (IC50) was less than 1 nM. On the same count and under the same terms, then `O=C(CN1C(=O)Cc2ccccc2C1=O)O[C@@H](Cc1c(Cl)c[n+]([O-])cc1Cl)c1ccc(OC(F)F)c(OCC2CC2)c1` [Compound 263, (S)-3,5-dichloro-4-(2-(3-(cyclopropylmethoxy)-4-(difluoromethoxy)phenyl)-2-(2-(1,3-dioxo-3,4-dihydroisoquinolin-2(1H)-yl)acetoxy)ethyl)pyridine 1-oxide], with 1 to 10 nM.

Tested on in the next data set: not given
Experiment: not given
Conditions: human, microsomes.
`O=C(Cn1c(=O)oc2ccccc21)O[C@@H](Cc1c(Cl)c[n+]([O-])cc1Cl)c1ccc(OC(F)F)c(OCC2CC2)c1` [Compound 24]: the “intrinsic Clearance” value was greater than 15 mL/min/g.
